Our source for the EC50 values is BindingDB's records for doi:10.7270/Q2Q52N1X (Vanderbilt Screening Center for GPCRs, Ion Channels and …, 2009).

As usually defined, the EC50 is the concentration needed to bring the measured effect to its halfway point. A high value points to weaker potency.

Non-standard residues stand in square brackets, D forms with d. Residues, ends and D or L forms follow the SMILES beside them. ξ: configuration not given here. *: point of attachment. ξF = NC(Cc1ccccc1)C(=O)O; Cbz = O=C(OCc1ccccc1)*

This test deals with T1, Solute carrier family 12 member 5 (Homo sapiens, UniProt Q9H2X9).
T1 sequence (Q9H2X9 whole entry): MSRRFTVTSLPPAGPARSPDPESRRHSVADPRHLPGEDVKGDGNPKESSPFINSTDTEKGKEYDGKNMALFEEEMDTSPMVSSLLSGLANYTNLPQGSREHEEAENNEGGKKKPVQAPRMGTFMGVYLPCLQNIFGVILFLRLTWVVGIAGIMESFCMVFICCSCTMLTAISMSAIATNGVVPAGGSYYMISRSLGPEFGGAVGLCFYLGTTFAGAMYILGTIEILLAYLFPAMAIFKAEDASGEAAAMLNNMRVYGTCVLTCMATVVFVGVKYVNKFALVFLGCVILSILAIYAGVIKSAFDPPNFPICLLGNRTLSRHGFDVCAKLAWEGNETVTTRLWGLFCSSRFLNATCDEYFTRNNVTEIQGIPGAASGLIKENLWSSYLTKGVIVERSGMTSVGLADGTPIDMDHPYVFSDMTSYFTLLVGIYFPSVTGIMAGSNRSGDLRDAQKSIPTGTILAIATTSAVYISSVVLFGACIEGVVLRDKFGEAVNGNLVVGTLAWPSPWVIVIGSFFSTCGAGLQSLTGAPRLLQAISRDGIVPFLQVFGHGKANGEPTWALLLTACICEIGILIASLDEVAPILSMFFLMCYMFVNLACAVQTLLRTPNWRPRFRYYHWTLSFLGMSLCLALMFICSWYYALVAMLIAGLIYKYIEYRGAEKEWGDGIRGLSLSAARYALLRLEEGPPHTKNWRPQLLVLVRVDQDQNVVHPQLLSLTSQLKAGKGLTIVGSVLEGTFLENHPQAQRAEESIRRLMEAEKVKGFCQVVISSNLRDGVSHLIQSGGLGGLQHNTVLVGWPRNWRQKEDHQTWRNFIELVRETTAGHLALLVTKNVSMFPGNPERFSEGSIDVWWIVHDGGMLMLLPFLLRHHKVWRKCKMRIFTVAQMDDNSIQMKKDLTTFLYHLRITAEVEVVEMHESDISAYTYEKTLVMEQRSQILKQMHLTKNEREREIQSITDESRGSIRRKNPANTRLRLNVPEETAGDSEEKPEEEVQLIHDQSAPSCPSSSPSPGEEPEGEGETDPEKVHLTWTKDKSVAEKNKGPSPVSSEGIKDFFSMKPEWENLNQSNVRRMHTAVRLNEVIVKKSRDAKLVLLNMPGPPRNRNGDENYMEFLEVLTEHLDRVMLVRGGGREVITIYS
In words: KCC2 modulator potency by thallium flux, dose response, cell-based, HEK293 KCC2, FluoZin-2 fluorescence (AID 1736).

[1] abbreviates: inactive by the depositor's call.

`CC1CCCCN1C(=O)CSc1ccc(-c2ccc(F)cc2)nn1` (stereo unspecified) [2-[6-(4-Fluoro-phenyl)-pyridazin-3-ylsulfanyl]-1-(2-methyl-piperidin-1-yl)-ethanone] returned an EC50 of 8190 µM.

`CC1CCN(C(=O)CSc2ccc(-c3ccc(F)cc3)nn2)CC1` [2-[6-(4-Fluoro-phenyl)-pyridazin-3-ylsulfanyl]-1-(4-methyl-piperidin-1-yl)-ethanone] gave an EC50 of 3.08 µM.

As to `Cc1cc(NC(=O)CSc2ccc(-c3ccc(F)cc3)nn2)no1` [2-[6-(4-fluorophenyl)pyridazin-3-yl]sulfanyl-N-(5-methyl-1,2-oxazol-3-yl)acetamide], the EC50 was 0.182 µM.

As for `CCC(Cc1ccccc1)NC(=O)CN(C)S(=O)(=O)c1ccc2c(c1)c(=O)n(C)c(=O)n2C` (stereo unspecified) [2-[(1,3-dimethyl-2,4-dioxo-6-quinazolinyl)sulfonyl-methylamino]-N-(1-phenylbutan-2-yl)acetamide], the EC50 was 2410 µM.

Regarding `Cn1c(SCc2ccccc2Cl)nc2ccccc21` [2-[(2-chlorobenzyl)thio]-1-methyl-1H-benzimidazole], a half-maximal response (EC50) required 3.96 µM.

As to `Cc1[nH]c2ccccc2c1SCC(=O)N1CCN(c2ccccc2)CC1` [2-[(2-methyl-1H-indol-3-yl)thio]-1-(4-phenyl-1-piperazinyl)ethanone], the EC50 came out at 86.4 µM.

In the case of `Cc1ccc(/C=C2/Sc3ccccc3N(CC(=O)NCCCOC(C)C)C2=O)cc1` [2-[(2E)-2-[(4-methylphenyl)methylidene]-3-oxidanylidene-1,4-benzothiazin-4-yl]-N-(3-propan-2-yloxypropyl)ethanamide], a half-maximal effect (EC50) was put at 276 µM.

With `COc1ccc(S(=O)(=O)N(CCc2ccccc2)CC(=O)O)cc1Cl` [2-[(3-chloranyl-4-methoxy-phenyl)sulfonyl-(2-phenylethyl)amino]ethanoic acid], the EC50 is 3.8 µM.

Regarding `O=C(NCCOc1ccccc1F)c1ccccc1SCc1ccc(F)cc1` [2-[(4-fluorobenzyl)thio]-N-[2-(2-fluorophenoxy)ethyl]benzamide], the EC50 was determined as 0.313 µM.

`Cc1ccc(NC(=O)c2ccccc2NS(=O)(=O)c2ccc(Cl)s2)cc1` [2-[(5-chloranylthiophen-2-yl)sulfonylamino]-N-(4-methylphenyl)benzamide]: the EC50 stood at 1.64 µM.

For the molecule `N#Cc1c(NC(=O)CSc2nc(N)cc(=O)[nH]2)sc2c1CCCCCC2` [2-[(6-amino-4-oxo-1H-pyrimidin-2-yl)sulfanyl]-N-(3-cyano-4,5,6,7,8,9-hexahydrocycloocta[b]thiophen-2-yl)acetamide], the EC50 was 0.461 µM.

Take `CN(C)S(=O)(=O)N(CC(=O)NCCSCc1ccccc1)c1ccccc1` [2-[N-(dimethylsulfamoyl)anilino]-N-[2-(phenylmethylthio)ethyl]acetamide]: under setting [1], the EC50 stood at 18.7 µM.

With `CCOC(=O)CNC(=O)C(Cc1ccccc1)NC(=O)OCc1ccccc1` (stereo unspecified) [2-[[1-oxo-3-phenyl-2-(phenylmethoxycarbonylamino)propyl]amino]acetic acid ethyl ester] (Cbz-[ξF]-Gly-OEt), the EC50 was found to be 5.03 µM.

`COc1ccc(-n2cnnc2SCC(=O)Nc2cc(S(=O)(=O)N3CCCCC3)ccc2C)cc1` [2-[[4-(4-methoxyphenyl)-1,2,4-triazol-3-yl]sulfanyl]-N-(2-methyl-5-piperidin-1-ylsulfonyl-phenyl)ethanamide] registered an EC50 of 4.63 µM.

For the molecule `Cc1ccc(Cn2c(SCC(=O)Nc3cc(C)on3)nc3ccccc3c2=O)cc1` [2-[[4-keto-3-(4-methylbenzyl)quinazolin-2-yl]thio]-N-(5-methylisoxazol-3-yl)acetamide], the EC50 turned out to be 82 µM.

The molecule `Cc1ccc(C(=O)CC=Nc2ccccc2C(N)=O)cc1` [2-[[(E)-3-(4-methylphenyl)-3-oxidanylidene-prop-1-enyl]amino]benzamide] showed an EC50 of 7.95 µM.

`COc1ccc(-c2cc(CNC(=O)CN(C)Cc3ccccc3)on2)cc1` [2-[benzyl(methyl)amino]-N-[[3-(4-methoxyphenyl)-1,2-oxazol-5-yl]methyl]acetamide] yielded an EC50 of 15 µM.

In turn, `CC(=O)NC(C)C(=O)OCC(=O)c1ccc(-c2ccccc2)cc1` (stereo unspecified) [2-acetamidopropanoic acid [2-oxo-2-(4-phenylphenyl)ethyl] ester] showed an EC50 of 7.92 µM.

For the molecule `CN(C)S(=O)(=O)c1cccc(NC(=O)c2cc3c(cc2Cl)N2CCCCC=C2NS3(=O)=O)c1` [2-chloranyl-N-[3-(dimethylsulfamoyl)phenyl]-5,5-bis(oxidanylidene)-8,9,10,11-tetrahydro-7H-azepino[2,1-c][1,2,4]benzothiadiazine-3-carboxamide], a half-maximal effect (EC50) was put at 0.0676 µM.

`Cc1ccc(-c2csc(NC(=O)CCNC(=O)c3ccccc3Cl)n2)cc1` [2-chloranyl-N-[3-[[4-(4-methylphenyl)-1,3-thiazol-2-yl]amino]-3-oxidanylidene-propyl]benzamide] had an EC50 of 2.16 µM.

`O=C(NC(=S)Nc1nc(-c2cccc([N+](=O)[O-])c2)cs1)c1ccccc1Cl` [2-chloranyl-N-[[4-(3-nitrophenyl)-1,3-thiazol-2-yl]carbamothioyl]benzamide] registered an EC50 of 6.81 µM.

Molecule `O=C(NCCSCc1ccccc1)c1cc(S(=O)(=O)N2CCOCC2)ccc1F` [2-fluoranyl-5-morpholin-4-ylsulfonyl-N-[2-(phenylmethylsulfanyl)ethyl]benzamide] came in with an EC50 under setting [1] of 24.7 µM.

As for `Cc1cc([N+](=O)[O-])ccc1NCc1ccccc1` [2-methyl-4-nitro-N-(phenylmethyl)aniline], it took 31.3 µM to reach a half-maximal effect (EC50).

`O=C(C1CCN(S(=O)(=O)c2cccc3nsnc23)CC1)N1CCc2ccccc2C1` [2-{[1-(2,1,3-benzothiadiazol-4-ylsulfonyl)piperidin-4-yl]carbonyl}-1,2,3,4-tetrahydroisoquinoline]: the EC50 was 34.1 µM.

As to `Cc1noc(/C=C/c2ccco2)c1S(=O)(=O)N1CCC(C(=O)N2CCc3ccccc3C2)CC1` [2-{[1-({5-[(E)-2-(2-furyl)vinyl]-3-methylisoxazol-4-yl}sulfonyl)piperidin-4-yl]carbonyl}-1,2,3,4-tetrahydroisoquinoline], the EC50 worked out at 5.35 µM.

With `COc1cc(OC)c(C2=NOC(C(=O)N3CCc4ccccc4C3)C2)cc1Cl` (stereo unspecified) [2-{[3-(5-chloro-2,4-dimethoxyphenyl)-4,5-dihydro-5-isoxazolyl]carbonyl}-1,2,3,4-tetrahydroisoquinoline], the EC50 was 8.15 µM.

With `O=C(C1CCN(S(=O)(=O)c2cccs2)CC1)N1CCc2ccccc2C1` [3,4-dihydro-1H-isoquinolin-2-yl-(1-thiophen-2-ylsulfonyl-4-piperidinyl)methanone], the EC50 amounted to 4.18 µM.

Molecule `O=C(C1CCN(c2nnc(-n3cccc3)s2)CC1)N1CCc2ccccc2C1` [3,4-dihydro-1H-isoquinolin-2-yl-[1-(5-pyrrol-1-yl-1,3,4-thiadiazol-2-yl)-4-piperidyl]methanone] had an EC50 of 10.6 µM.

Turning to `Cc1cc(C(=O)COC(=O)CCc2nc3ccccc3s2)c(C)n1C` [3-(1,3-benzothiazol-2-yl)propanoic acid [2-oxo-2-(1,2,5-trimethyl-3-pyrrolyl)ethyl] ester], the EC50 is 16 µM.

In turn, `Cc1ccccc1OCC(=O)NNC(=O)CCN1C(=O)c2ccccc2C1=O` [3-(1,3-dioxo-2-isoindolyl)-N'-[2-(2-methylphenoxy)-1-oxoethyl]propanehydrazide] gave a 50% effective concentration (EC50) of 14.8 µM.

`Cc1ccc(/C=C2\SC(=S)N(c3c(C)n(C)n(-c4ccccc4)c3=O)C2=O)cc1` [3-(1,5-dimethyl-3-oxo-2-phenyl-2,3-dihydro-1H-pyrazol-4-yl)-5-(4-methylbenzylidene)-2-thioxo-1,3-thiazolidin-4-one] registered an EC50 of 1.18 µM.

The molecule `Cc1onc(-c2ccccc2Cl)c1C(=O)NC(=S)Nc1ccc(C(C)C)cc1` [3-(2-chlorophenyl)-5-methyl-N-(p-cumenylthiocarbamoyl)isoxazole-4-carboxamide] came in with an EC50 of 0.291 µM.

As for `O=C(NCCCCc1ccccc1)C1CC(c2ccccc2[N+](=O)[O-])=NO1` (stereo unspecified) [3-(2-nitrophenyl)-N-(4-phenylbutyl)-2-isoxazoline-5-carboxamide], a half-maximal effect (EC50) was put at 8.63 µM.

Take `O=C(CCSCCc1ccccn1)Nc1ccc(Cc2ccncc2)cc1` [3-(2-pyridin-2-ylethylsulfanyl)-N-[4-(pyridin-4-ylmethyl)phenyl]propanamide]: the midpoint of the response, the EC50, lay at 8.25 µM.

Molecule `O=S1(=O)N=C(N2CCN(Cc3ccccc3)CC2)c2ccccc21` [3-(4-Benzyl-piperazin-1-yl)-benzo[d]isothiazole 1,1-dioxide] yielded an EC50 of 3.19 µM.

Regarding `O=C(Cn1c(-c2ccc(Cl)cc2)noc1=O)N1CCN(c2ccccc2F)CC1` [3-(4-Chloro-phenyl)-4-{2-[4-(2-fluoro-phenyl)-piperazin-1-yl]-2-oxo-ethyl}-4H-[1,2,4]oxadiazol-5-one], the EC50 is 6.07 µM.
